In patent publication US20050096360A1, “Inhibitors of semicarbazide-sensitive amine oxidase (SSAO) and VAP-1 mediated adhesion useful for treatment of diseases” (priority 2003, published 2005):
Structures can show the parent of a compound that is named as a salt. Where two headings read alike, the source gives them in different places.

Assays:
[1] = test system: carrageenan-induced paw edema in Sprague Dawley rats; assay: Carrageenan-induced rat paw edema; type: in vivo; settings: 3 mg/kg oral 1 hour prior to carrageenan
Description: Female Sprague Dawley rats were used and compounds of the invention were injected i.p. at 100 mg/kg 15 minutes prior to carrageenan exposure. The control group was injected with an equal volume of vehicle (PBS). Edema in the paws was induced as previously described by injecting 50 μl of a 0.5% solution of carrageenan (Type IV Lambda, Sigma) in saline with a 27-G needle s.c. in the right foot pat. (See Whiteley P. E. and Dalrymple S. A. (1998) Models of inflammation: carrageenan-induced paw edema in the rat, in Current Protocols in Pharmacology. Enna S J, Williams M, Ferkany J W, Kenaki T, Porsolt R E and Sullivan J P, eds., pp 5.4.1-5.4.3, John Wiley & Sons, New York) The size of the tested foot of each animal was measured volumetrically, before induction of edema, and at 60, 120, and 180 min after carrageenan induction.
Briefly, SSAO inhibitors (30 mg/kg), indomethacin (3 mg/kg) and PBS were administered orally to rats 1 hour after carrageenan injections.
To investigate further the role of SSAO inhibition in the inflammatory response, studies were carried out to assess the effect of SSAO inhibition on prostaglandin E2 (PGE2) levels. Animals were divided into four therapeutic groups of eight rats each. […] The fourth group received 3 mg/kg of dexamethasone, i.p. 1 hour before paw inflammation. Three hours after carrageenan injection, rats were asphyxiated with CO2 and their hind paws removed. The paws were lacerated with a scalpel, suspended off the bottom of a polypropylene 1.5 ml tube with a micropipette tip and centrifuged to express the inflammatory fluid. The volume collected from each paw was determined and the fluid was analyzed by ELISA for PGE2 production using a commercial kit (R&D Systems, Minneapolis, Minn.) according to the manufacturer's instructions. […] Data were analyzed with GraphPad Prism software (San Diego, Calif.) by Dunnett's test following analysis of variance.

[2] = biological target: T1, SSAO (bovine plasma amine oxidase, PAO) (Bos taurus, UniProt Q29437); assay: In vitro inhibition of SSAO activity, coupled colorimetric method; type: biochemical
T1 construct: Bovine plasma amine oxidase (PAO) was purchased from Worthington Biochemical; purchased Worthington Biochemical (Lakewood, N.J.)
T1 sequence (Q29437 17-762): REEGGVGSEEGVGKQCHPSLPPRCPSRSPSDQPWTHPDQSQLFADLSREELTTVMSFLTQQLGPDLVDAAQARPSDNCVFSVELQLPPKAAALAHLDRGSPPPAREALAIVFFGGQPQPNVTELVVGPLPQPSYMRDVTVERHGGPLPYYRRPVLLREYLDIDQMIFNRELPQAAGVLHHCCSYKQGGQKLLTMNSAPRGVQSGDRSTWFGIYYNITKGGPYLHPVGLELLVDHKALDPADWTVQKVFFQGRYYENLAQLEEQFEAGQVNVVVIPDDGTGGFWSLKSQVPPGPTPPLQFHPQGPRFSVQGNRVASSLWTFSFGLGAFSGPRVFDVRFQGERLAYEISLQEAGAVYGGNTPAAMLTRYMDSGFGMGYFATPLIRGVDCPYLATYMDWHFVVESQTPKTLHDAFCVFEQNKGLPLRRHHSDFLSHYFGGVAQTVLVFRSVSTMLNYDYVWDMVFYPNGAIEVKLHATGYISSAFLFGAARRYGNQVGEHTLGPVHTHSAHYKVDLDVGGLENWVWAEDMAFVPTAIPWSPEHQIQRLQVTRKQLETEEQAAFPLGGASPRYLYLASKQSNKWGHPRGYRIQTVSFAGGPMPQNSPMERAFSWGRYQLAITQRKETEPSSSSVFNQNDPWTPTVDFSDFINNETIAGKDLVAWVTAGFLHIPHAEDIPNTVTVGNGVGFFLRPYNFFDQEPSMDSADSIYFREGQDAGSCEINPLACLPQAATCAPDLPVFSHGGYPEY
Description: SSAO activity was measured using the coupled colorimetric method essentially as described for monoamine oxidase and related enzymes (Holt A. et al. (1997) Anal. Biochem. 244:384). Bovine plasma amine oxidase (PAO) was purchased from Worthington Biochemical (Lakewood, N.J.) and used as a source of SSAO for activity measurements. The SSAO assay was performed in 96 well microtitre plates as follows. A pre-determined amount of inhibitor diluted in 0.2 M potassium phosphate buffer, pH 7.6, was added to each well, if required. The amount of inhibitor varied in each assay but was generally at a final concentration of between 10 nM and 10 μM. Controls lacked inhibitor. In order to study the effects of potential inhibitors 50 μl of inhibitor solution were preincubated for 30 min at 37° C. with 0.4 mU of PAO in an a total volume of 130 μl of 0.2 M potassium phosphate buffer pH 7.6. Assays were then started by addition of 20 μl 10 mM benzylamine substrate and incubated for 20 min at 37° C. The following reagents were then added to a final reaction volume of 200 μl, 50 μl of freshly made chromogenic solution containing […] vanillic acid (Sigma # V-2250), […] 4-aminoantipyrine (Sigma # A-4328) and 12 U/ml horseradish peroxidase (Sigma # P-8250) in order to cause a change of 0.5 OD A490 per hour. This was within the linear response range of the assay. The plates were incubated for 1 hr at 37° C. and the increase in absorbance, reflecting SSAO activity, was measured at 490 nm using a microplate spectrophotometer (Power Wave 40, Bio-Tek Inst.). Inhibition was presented as percent inhibition compared to control after correcting for background absorbance and IC50 values calculated using GraphPad Prism software.

recombinant human MAO-A = biological target: T2, recombinant human MAO-A (Homo sapiens, UniProt P21397); assay: Inhibition of MAO-A activity, colorimetric; type: biochemical; settings: for Specificity for SSAO vs. MAO-A: ratio IC50 MAO-A to IC50 SSAO
T2 construct: purchased BD Biosciences (MA, USA)
T2 sequence (P21397 1-527): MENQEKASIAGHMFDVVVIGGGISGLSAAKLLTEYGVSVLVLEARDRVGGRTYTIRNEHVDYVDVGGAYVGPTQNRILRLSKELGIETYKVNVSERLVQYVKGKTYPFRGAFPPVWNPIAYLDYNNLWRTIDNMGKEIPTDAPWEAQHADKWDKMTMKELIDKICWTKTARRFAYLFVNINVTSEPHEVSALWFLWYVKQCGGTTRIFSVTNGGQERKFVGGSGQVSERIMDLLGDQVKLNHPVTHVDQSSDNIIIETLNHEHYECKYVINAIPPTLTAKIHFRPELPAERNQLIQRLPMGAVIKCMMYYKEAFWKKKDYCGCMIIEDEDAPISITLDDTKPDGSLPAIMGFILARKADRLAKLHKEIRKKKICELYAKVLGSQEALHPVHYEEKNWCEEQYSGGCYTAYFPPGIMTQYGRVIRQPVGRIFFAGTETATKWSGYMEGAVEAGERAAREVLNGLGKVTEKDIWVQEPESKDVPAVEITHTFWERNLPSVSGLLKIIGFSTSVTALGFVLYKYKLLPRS
Description: (§1) The specificity of the different SSAO inhibitors was tested by determining their ability to inhibit MAO-A and MAO-B activities in vitro. Recombinant human MAO-A and human MAO-B enzymes were obtained from BD Biosciences (MA, USA). […] A pre-determined amount of inhibitor diluted in 0.2 M potassium phosphate buffer, pH 7.6, was added to each well, if required. […] Controls lacked inhibitor. The following agents were then added to a final reaction volume of 200 μl in 0.2 M potassium phosphate buffer, pH 7.6: 0.04 mg/ml of MAO-A or 0.07 mg/ml MAO-B enzyme, 15 μl of 10 mM tyramine substrate (for MAO-A), or 15 μl 100 mM benzylamine substrate (for MAO-B), and 50 μl of freshly made chromogenic solution (as above). The plates were incubated for 60 min at 37° C. The increase in absorbance, reflecting MAO activity, was measured at 490 nm using microplate spectrophotometer (Power Wave 40, Bio-Tek Inst.). Inhibition was presented as percent inhibition compared to control after correcting for background absorbance and IC50 values calculated using GraphPad Prism software.

recombinant human MAO-B = biological target: T3, recombinant human MAO-B (Homo sapiens, UniProt P27338); assay: Inhibition of MAO-B activity, colorimetric; type: biochemical; settings: for Specificity for SSAO vs. MAO-B: ratio IC50 MAO-B to IC50 SSAO
T3 construct: purchased BD Biosciences (MA, USA)
T3 sequence (P27338 1-520): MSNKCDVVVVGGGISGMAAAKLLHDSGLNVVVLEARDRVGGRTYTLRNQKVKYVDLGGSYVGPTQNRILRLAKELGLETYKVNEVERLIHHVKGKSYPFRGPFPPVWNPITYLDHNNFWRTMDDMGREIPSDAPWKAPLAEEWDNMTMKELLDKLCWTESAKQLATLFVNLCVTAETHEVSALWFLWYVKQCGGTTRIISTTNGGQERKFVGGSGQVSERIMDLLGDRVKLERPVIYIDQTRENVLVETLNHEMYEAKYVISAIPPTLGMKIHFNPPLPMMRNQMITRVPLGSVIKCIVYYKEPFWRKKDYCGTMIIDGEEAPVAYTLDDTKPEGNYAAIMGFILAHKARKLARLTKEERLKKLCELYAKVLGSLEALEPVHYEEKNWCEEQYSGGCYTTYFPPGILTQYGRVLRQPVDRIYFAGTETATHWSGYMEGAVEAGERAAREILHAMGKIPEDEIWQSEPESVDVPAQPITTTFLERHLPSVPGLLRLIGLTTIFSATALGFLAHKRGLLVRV
Description: as §1

## COc1ccc2c(c1)c(CC(=O)O)c(C)n2C(=O)c1ccc(Cl)cc1 [indomethacin, reference compound]
[1]
  PGE2 levels in paw exudate: greater impact

## NOCC(O)c1ccccc1 (centres unmarked) [Example 11, 2-Aminooxyl-1-phenyl-ethanol Hydrochloride]
[2]
  IC50: 0.05 µM
Recombinant human MAO-A
  IC50: 250 µM
  Specificity for SSAO vs. MAO-A: 5000
Recombinant human MAO-B
  IC50: 450 µM
  Specificity for SSAO vs. MAO-B: 9000

## C=C(C)CNN.Cl [Example 9, (2-methyl-allyl)hydrazine Hydrochloride]
[2]
  IC50: 0.055 µM
Recombinant human MAO-A
  IC50: 350 µM
  Specificity for SSAO vs. MAO-A: 6,300
Recombinant human MAO-B
  IC50: 20 µM
  Specificity for SSAO vs. MAO-B: 360

## COc1ccc(C(O)CON)cc1OC (centres unmarked) [Example 12, 2-Aminooxy-1-(3′,4′-dimethoxyphenyl)-ethanol Hydrochloride]
[2]
  IC50: 0.09 µM
Recombinant human MAO-A
  IC50: 3.6 µM
  Specificity for SSAO vs. MAO-A: 400,000
Recombinant human MAO-B
  IC50: 8200 µM
  Specificity for SSAO vs. MAO-B: 90,000

## C=C(CN(C)NC)c1ccc(Cl)cc1.Cl [Example 6, N-[2-(4′-Chlorophenyl)-allyl]-N,N′-dimethylhydrazine Hydrochloride]
[2]
  IC50: 4.7 µM
Recombinant human MAO-A
  IC50: 300 µM
  Specificity for SSAO vs. MAO-A: 64
Recombinant human MAO-B
  IC50: 2.8 µM
  Specificity for SSAO vs. MAO-B: 0.60
other
  melting point: 108 to 110 °C

## C=C(CNN)c1ccc(Cl)cc1.Cl [Example 3, N-[2-(4′-chlorophenyl)-allyl]-hydrazine Hydrochloride]
[2]; 30 min preincubation, benzylamine substrate, read-out: SSAO Inhibitory Activity IC50
  IC50: 0.05 µM
Recombinant human MAO-A
  Specificity for SSAO vs. MAO-A: 20
Recombinant human MAO-A; tyramine substrate, no pre-incubation, read-out: MAO-A Inhibitory Activity IC50
  IC50: 1 µM
Recombinant human MAO-B
  IC50: 24.5 µM
  Specificity for SSAO vs. MAO-B: 490

## C=C(CN(C)N)c1ccc(Cl)cc1.Cl [Example 4, N-[2-(4′-chlor-phenyl)-allyl]-N-methyl-hydrazine Hydrochloride]
[2]
  IC50: 0.65 µM
Recombinant human MAO-A
  IC50: 260 µM
  Specificity for SSAO vs. MAO-A: 400
Recombinant human MAO-B
  IC50: 175 µM
  Specificity for SSAO vs. MAO-B: 269

## C=C(CON)c1ccccc1 [Example 1, O-(2-phenyl-allyl)-hydroxylamine Hydrochloride]
[2]
  IC50: 0.029 µM
Recombinant human MAO-A
  IC50: 900 µM
  Specificity for SSAO vs. MAO-A: 31,000
Recombinant human MAO-B
  IC50: 125 µM
  Specificity for SSAO vs. MAO-B: 4,300

## C=C(CNNC)c1ccc(F)cc1.Cl [Example 7, N-[2-(4′-fluorophenyl)-allyl]-N′-methylhydrazine Hydrochloride]
[2]
  IC50: 2.61 µM
Recombinant human MAO-A
  IC50: 620 µM
  Specificity for SSAO vs. MAO-A: 230
Recombinant human MAO-B
  IC50: 210 µM
  Specificity for SSAO vs. MAO-B: 80
other
  melting point: 128 to 129 °C

## C=C(CN(N)CC)c1ccc(Cl)cc1.Cl [Example 5, N-[2-(4′-Chlorophenyl)-allyl]-N-ethyl-hydrazine Hydrochloride]
[2]
  IC50: 0.95 µM
Recombinant human MAO-A
  IC50: 690 µM
  Specificity for SSAO vs. MAO-A: 726
Recombinant human MAO-B
  IC50: 155 µM
  Specificity for SSAO vs. MAO-B: 163
other
  melting point: 150 to 151 °C

## C=C(CON)c1ccccc1 (as salt: hydrochloride) [Example 1, O-(2-phenyl-allyl)-hydroxylamine Hydrochloride]
other
  melting point: 101 to 102 °C
